Measured values from patent US6608111B1, “Method for treating or preventing prostatic conditions” (Southern Illinois University Office of Research, …, priority 1998, dated 2003).
Entries after “also recorded” stand apart in the source; their conditions may differ.

Key:
[1] = test system: rats, cats, chicks, and guinea pigs; details: animals including rats; cited from earlier work
women = details: clinical; cited from earlier work
[2] = test system: MCF-7 human mammary cancer cell line; details: human MCF-7 cells in culture; cited from earlier work
[3] = test system: male and female Wistar rats; assay: Experiment 2: chronic treatment of male and female rats, 5-6 weeks; assay type: in vivo, rat; details: for Food intake: n = 5
Method: Twenty-five male and 25 female Wistar rats, 7-8 weeks of age, were randomly assigned to groups of five animals, respectively, for treatment with vehicle only (V), estradiol (E), (±)-Z-BDDA, (+)-Z-BDDA, or (−)-Z-BDDA. Each animal in group V received a daily 0.1 cc injection of a 10% ethanol-90% olive oil solution; the other treatments received their respective compound as a daily 0.1 cc injection, e.g., 2.5 μg of compound/g of body weight, in a 10% ethanol-90% olive oil solution. A temperature of 21° C. and an artificial 12-h light-dark cycle were maintained in the animal room. All animals were maintained on standard chow in powdered form, the males for five weeks and the females for six weeks, then sacrificed after an overnight fast under i.p. pentobarbital anesthesia (50 mg/kg). Animal weight and food intake were measured weekly during the study and subsequent FER values were determined. During sacrifice, blood was collected (via cardiac puncture) for glucose, luteinizing hormone, prolactin and testosterone measurements. The amounts of luteinizing hormone, prolactin and testosterone were measured to help elucidate the target tissue of the respective compounds in male and female rats. Immediately following sacrifice the fat pads and reproductive organs were removed and weighed.
(§1) Experiments 1 and 2 employed a randomized design. All data were analyzed by one-way analysis of variance (ANOVA,)and post-hoc comparisons were made with Tukey pairwise comparisons test. Significance was confirmed at p≦0.05 (SYSTAT 7.0, SPSS INC., 1997), and all values are reported as means±standard error of the mean.

[4] = even at 1000-times the estrogenic dosage; cited from earlier work
[5] = test system: male and female Sprague-Dawley rats; assay: Experiment 1: chronic treatment of male and female rats, 4 weeks; assay type: in vivo, rat; details: mean ± SEM; for Food intake: n = 5
Method: Twenty-five male and 25 female Sprague-Dawley rats, 9-10 weeks of age, were randomly assigned to groups of five animals, respectively, as a control group (no treatment) (C), for treatment with vehicle only (V), estradiol (E), (±)-Z-BDDA, or (+)-Z-BDDA. Each animal in group V received a daily 0.1 cc injection of a 10% ethanol-90% olive oil solution; the other treatments received their respective compound as a daily 0.1 cc injection, e.g., 2.5 μg of compound/g of body weight, in a 10% ethanol-90% olive oil solution. A temperature of 21° C. and an artificial 12-h light-dark cycle was maintained in the animal room. All animals were maintained on standard chow in powdered form for four weeks, then sacrificed after an overnight fast under i.p. pentobarbital anesthesia (50 mg/kg). Animal weight and food intake were measured weekly during the study, and the subsequent food-efficiency ratio [FER(g of weight change/g of food intake)] was determined. During sacrifice, blood was collected (via cardiac puncture) for cholesterol measurements. Immediately following sacrifice the fat pads and reproductive organs were removed and weighed.
as §1

female mice = details: E2 5 g/animal/day, (±)-Z-BDDA 5, 50, and 500 g/animal/day, versus control group; cited from earlier work
[6] = in vivo assays, compared with estradiol; cited from earlier work
[7] = test system: uterine cytosolic estrogen receptors (ER); details: competitive binding-inhibition, relative to E2; cited from earlier work
[8] = female rats, 2.5 ug/g of body weight daily, six weeks, mean ± SEM
[9] = male rats, 2.5 ug/g of body weight daily, five weeks, mean ± SEM
[10] = female rats, 2.5 ug/g of body weight daily
[11] = male rats, 2.5 ug/g of body weight daily

Compound: CC[C@@H](c1ccc2cc(OC)ccc2c1)C(C)(C)C(=O)O [compound 2, (−)-3-[2-(6-methoxynaphthyl)]-2,2-dimethyl-pentanoic acid]
- estrogenic activity (estrogenicity) in animals [1]: strongest estrogenic activity; also recorded: highly estrogenic in animals, equivalent to 17β-estradiol
- estrogenic response in women / humans (women): high dosages were required to elicit strong estrogenic responses
- MCF-7 cell proliferation (estrogenicity) [2]: very little effect

Compound: (±)-Z-bisdehydrodoisynolic acid [(±)-Z-BDDA]
- Uterus/testis weight (g) ([3]; female rats (uterus), 2.5 ug/g of body weight daily, six weeks, mean ± SEM): 4.25 ± 1.04^1 g
- Blood glucose [3, 8]: 80.40 ± 5.66 mg/dL
- FER (food efficiency ratio) [3, 8]: 0.017 ± 0.003^1,2
- Food intake [3, 8]: 704.0 ± 51.7 g
- weight gain (percent weight change) ([3]; female rats, both experiments (FIGS. 2 and 3), 2.5 μg/g daily): repress weight gain slightly more than did (+)-Z-BDDA and E2
- Uterus/testis weight (g) ([3]; male rats (testis), 2.5 ug/g of body weight daily, five weeks, mean ± SEM): 0.78 ± 0.02^1 g
- testosterone ([3]; male rats, 2.5 μg/g daily, compared to the vehicle): less pronounced
- Blood glucose [3, 9]: 98.60 ± 14.00 mg/dL
- FER (food efficiency ratio) [3, 9]: −0.04 ± 0.01^1,2
- Prostate weight [3, 9]: 0.16 ± 0.02 g
- Food intake [3, 9]: 530.0 ± 33.0 g
- toxicity and carcinogenicity [4]: neither toxicity nor carcinogenicity
- Uterus/testis weight (g) ([5]; female rats (uterus), 2.5 ug/g of body weight daily): 2.04 ± 0.45^1 g
- Food intake ([5]; female rats, 2.5 ug/g of body weight daily injection): 318.2 ± 21.8 g
- FER (food efficiency ratio) ([5]; female rats, 2.5 ug/g of body weight daily, g of weight change/g of food intake): −0.023 ± 0.027^1
- Cholesterol (mg/dl) [5, 10]: 30.1 ± 2.8^1 mg/dl
- Visceral fat [5, 10]: 1.3 ± 0.1 g
- Uterus/testis weight (g) ([5]; male rats (testis), 2.5 ug/g of body weight daily): 0.72 ± 0.06^1,2 g
- Cholesterol (mg/dl) [5, 11]: 36.2 ± 2.6^1,2 mg/dl
- FER (food efficiency ratio) [5, 11]: −0.099 ± 0.009^1,2
- Prostate weight (g) [5, 11]: 0.08 ± 0.02^1,2 g
- Visceral fat (g) [5, 11]: 4.5 ± 0.4^2 g
- Food intake [5, 11]: 344.6 ± 15.5 g
- rate of weight gain (female mice): diminished
- MCF-7 cell proliferation (estrogenicity) [2]: high estrogenic potency
- estrogenicity: vaginal cornification and uterotropism [6]: rivaling or even surpassing estradiol
- binding affinity as fraction of that of E2 [7]: 0.01-0.03
